Calls of active or inactive are those of the source. The calls are words filed in the database; no cut-off is given here.
Columns and labels:
4T1 [1] = assay: Antitumor activity against mouse 4T1 cells implanted in BALB/C mouse assessed as downregulation of NRIP1 gene expression at 50 mg/kg,ip administrated daily for 14 days by RT-qPCR analysis; assay type: functional, organism-based; conditions: time 14.0 day
MCF7 [2] = assay: Antitumor activity against human MCF7 cells xenografted in BALB/C mouse assessed as downregulation of PGR gene expression at 50 mg/kg,ip administrated every other day for 29 days by RT-qPCR analysis; assay type: functional, organism-based; conditions: time 29.0 day
MCF7 [3] = assay: Induction of cell cycle arrest in human MCF7 cells at 2.5 to 10 uM incubated overnight by propidium iodide staining based flow cytometry; assay type: functional; conditions: dose 2.5-10 µM
4T1 [4] = assay: Antitumor activity against mouse 4T1 cells implanted in BALB/C mouse assessed as upregulation of IFNalpha gene expression at 50 mg/kg,ip administrated daily for 14 days by RT-qPCR analysis; assay type: functional, organism-based; conditions: time 14.0 day
MCF7 [5] = assay: Antitumor activity against human MCF7 cells xenografted in BALB/C mouse assessed as reduction of tumor weight at 50 mg/kg,ip administrated every other day for 29 days; assay type: functional, organism-based; conditions: time 29.0 day
MCF7 [6] = assay: Antiproliferative activity against tamoxifen-resistant human MCF7 cells assessed as reduction in cell growth at 5 uM incubated for 7 days by celltiter 96 aqueous one solution cell proliferation assay; assay type: functional, cell-based; conditions: time 7.0 day
4T1 [7] = assay: (§1) Potentiation of etoposide induced antitumor activity against mouse 4T1 cells implanted in BALB/C mouse assessed as upregulation of ISG15 gene expression at 25 mg/kg,ip administrated daily for 12 days in presence of 8 mg/kg etoposide administration by RT-qPCR analysis; assay type: functional, organism-based; conditions: time 12.0 day
MDA-MB-231 = assay: Antitumor activity against human MDA-MB-231 cells xenografted in BALB/C mouse assessed as reduction of tumor weight at 25 mg/kg,ip administrated daily for 11 days; assay type: functional, organism-based; conditions: time 11.0 day
MCF7 [8] = assay: Antitumor activity against human MCF7 cells xenografted in BALB/C mouse assessed as upregulation of DDX58 gene expression at 50 mg/kg,ip administrated every other day for 29 days by RT-qPCR analysis; assay type: functional, organism-based; conditions: time 29.0 day
[9] = Toxicity in BALB/C mouse implanted with mouse 4T1 cells assessed as change in spleen morphology at 25 mg/kg,ip administrated daily for 14 days; assay type: organism-based; conditions: in vivo, 336 h, time 14 day
MCF7 [10] = assay: Antitumor activity against human MCF7 cells xenografted in BALB/C mouse assessed as downregulation of FOXC1 gene expression at 50 mg/kg,ip administrated every other day for 29 days by RT-qPCR analysis; assay type: functional, organism-based; conditions: time 29.0 day
4T1 [11] = assay: Potentiation of etoposide induced antitumor activity against mouse 4T1 cells implanted in BALB/C mouse assessed as upregulation of DDX58 gene expression at 25 mg/kg,ip administrated daily for 12 days in presence of 8 mg/kg etoposide administration by RT-qPCR analysis; assay type: functional, organism-based; conditions: time 12.0 day
MCF7 [12] = assay: Antitumor activity against human MCF7 cells xenografted in BALB/C mouse assessed as downregulation of NRIP1 gene expression at 50 mg/kg,ip administrated every other day for 29 days by RT-qPCR analysis; assay type: functional, organism-based; conditions: time 29.0 day
4T1 [13] = assay: Antitumor activity against mouse 4T1 cells implanted in BALB/C mouse assessed as downregulation of FOXC1 gene expression at 50 mg/kg,ip administrated daily for 14 days by RT-qPCR analysis; assay type: functional, organism-based; conditions: time 14.0 day
MCF7 [14] = assay: Synergistic antitumor activity against human MCF7 cells xenografted in BALB/C mouse assessed as downregulation of N-Myc gene expression at 25 mg/kg,ip administrated every other day for 15 days in presence of 5 mg/kg tamoxifen oral administration by RT-qPCR analysis; assay type: functional, organism-based; conditions: time 15.0 day
4T1 [15] = assay: Antitumor activity against mouse 4T1 cells implanted in BALB/C mouse assessed as inhibition of tumor weight at 25 mg/kg,ip administrated daily for 14 days; assay type: functional, organism-based; conditions: time 14.0 day
4T1 [16] = assay: as §1, with “increase in infiltration” for “upregulation”, “CD8 positive T cells” for “ISG15 gene expression”, “immunohistochemical staining based” for “RT-qPCR”; assay type: functional, organism-based; conditions: time 12.0 day
4T1 [17] = assay: Antitumor activity against mouse 4T1 cells implanted in BALB/C mouse assessed as downregulation of N-Myc gene expression at 50 mg/kg,ip administrated daily for 14 days by RT-qPCR analysis; assay type: functional, organism-based; conditions: time 14.0 day
[18] = Toxicity in BALB/C mouse implanted with mouse 4T1 cells assessed as change in lung morphology at 25 mg/kg,ip administrated daily for 14 days; assay type: organism-based; conditions: in vivo, 336 h, time 14 day
4T1 [19] = assay: Antitumor activity against mouse 4T1 cells implanted in BALB/C mouse assessed as increase in infiltration of CD8 positive T cells at 50 mg/kg,ip administrated daily for 14 days by immunohistochemical staining based analysis; assay type: functional, organism-based; conditions: time 14.0 day
4T1 [20] = assay: Potentiation of etoposide induced antitumor activity against mouse 4T1 cells implanted in BALB/C mouse assessed as upregulation of CCL5 gene expression at 25 mg/kg,ip administrated daily for 12 days in presence of 8 mg/kg etoposide administration by RT-qPCR analysis; assay type: functional, organism-based; conditions: time 12.0 day
4T1 [21] = assay: Antitumor activity against mouse 4T1 cells implanted in BALB/C mouse assessed as increase in infiltration of CD8 positive T cells at 25 mg/kg,ip administrated daily for 14 days by immunohistochemical staining based analysis; assay type: functional, organism-based; conditions: time 14.0 day
4T1 [22] = assay: Antitumor activity against mouse 4T1 cells implanted in BALB/C mouse assessed as upregulation of CCL5 gene expression at 50 mg/kg,ip administrated daily for 14 days by RT-qPCR analysis; assay type: functional, organism-based; conditions: time 14.0 day
[23] = Toxicity in BALB/C mouse xenografted with human MCF7 cells assessed as change in kidney morphology at 25 mg/kg,ip administrated every other day for 29 days; assay type: organism-based; conditions: in vivo, 696 h, time 29 day
4T1 [24] = assay: Antitumor activity against mouse 4T1 cells implanted in BALB/C mouse assessed as upregulation of IFIT1 gene expression at 25 mg/kg,ip administrated daily for 14 days by RT-qPCR analysis; assay type: functional, organism-based; conditions: time 14.0 day
HCC1806 = assay: Antiproliferative activity against human HCC1806 cells assessed as reduction in cell growth incubated for 7 days by celltiter 96 aqueous one solution cell proliferation assay; conditions: HCC1806, 168 h
[25] = Toxicity in BALB/C mouse xenografted with human MDA-MB-231 cells assessed as change in heart morphology at 50 mg/kg,ip administrated daily for 11 days; assay type: organism-based; conditions: in vivo, 264 h, time 11 day
4T1 [26] = assay: Antitumor activity against mouse 4T1 cells implanted in BALB/C mouse assessed as downregulation of C-Myc gene expression at 25 mg/kg,ip administrated daily for 14 days by RT-qPCR analysis; assay type: functional, organism-based; conditions: time 14.0 day
MCF7 [27] = assay: Antitumor activity against human MCF7 cells xenografted in BALB/C mouse assessed as downregulation of C-Myc gene expression at 50 mg/kg,ip administrated every other day for 29 days by RT-qPCR analysis; assay type: functional, organism-based; conditions: time 29.0 day
MCF7 [28] = assay: Synergistic antiproliferative activity against human MCF7 cells assessed as downregulation of TFF1 gene expression at 2.5 uM incubated for 6 hrs in presence of fulvestrant by RT-qPCR analysis; assay type: functional, cell-based
4T1 [29] = assay: Potentiation of etoposide induced antiproliferative activity against mouse 4T1 cells assessed as upregulation of DDX58 gene expression at 2.5 uM in presence of etoposide by RT-qPCR analysis; assay type: functional, cell-based

## Cc1ccc(-c2nc(N3CCN(CCN(C)C)CC3)ncc2-c2ccoc2)cc1.Cl.Cl
4T1 [1]
  Activity: Active
MCF7 [2]
  Activity: Active
MCF7 [3]
  Activity: Active
4T1 [4]
  Activity: Active
MCF7 [5]
  Activity: Active
MCF7 [6]
  Activity: Active
4T1 [7]
  Activity: Active
MDA-MB-231
  Activity: Active
MCF7 [8]
  Activity: Active
[9]
  Activity: Non-Toxic
MCF7 [10]
  Activity: Active
4T1 [11]
  Activity: Active
MCF7 [12]
  Activity: Active
4T1 [13]
  Activity: Active
MCF7 [14]
  Activity: Active
4T1 [15]
  Activity: Active
4T1 [16]
  Activity: Active
4T1 [17]
  Activity: Active
[18]
  Activity: Non-Toxic
4T1 [19]
  Activity: Active
4T1 [20]
  Activity: Active
4T1 [21]
  Activity: Active
4T1 [22]
  Activity: Active
[23]
  Activity: Non-Toxic
4T1 [24]
  Activity: Active
HCC1806
  EC50: 2830 nM
[25]
  Activity: Non-Toxic
4T1 [26]
  Activity: Active
MCF7 [27]
  Activity: Active
MCF7 [28]
  Activity: Active
4T1 [29]
  Activity: Active

Reference: ChEMBL document CHEMBL5512665, “A CARM1 Inhibitor Potently Suppresses Breast Cancer Both In Vitro and In Vivo” (J Med Chem, 2024)
